Reference: ChEMBL document CHEMBL1139458, “Discovery of small-molecule inhibitors of the ATPase activity of human papillomavirus E1 helicase” (J Med Chem, 2004)

Biological target: T1, DNA helicase/primase complex protein (Herpes simplex virus (type 1 / strain 17), UniProt P10236)
T1 sequence (P10236 whole entry): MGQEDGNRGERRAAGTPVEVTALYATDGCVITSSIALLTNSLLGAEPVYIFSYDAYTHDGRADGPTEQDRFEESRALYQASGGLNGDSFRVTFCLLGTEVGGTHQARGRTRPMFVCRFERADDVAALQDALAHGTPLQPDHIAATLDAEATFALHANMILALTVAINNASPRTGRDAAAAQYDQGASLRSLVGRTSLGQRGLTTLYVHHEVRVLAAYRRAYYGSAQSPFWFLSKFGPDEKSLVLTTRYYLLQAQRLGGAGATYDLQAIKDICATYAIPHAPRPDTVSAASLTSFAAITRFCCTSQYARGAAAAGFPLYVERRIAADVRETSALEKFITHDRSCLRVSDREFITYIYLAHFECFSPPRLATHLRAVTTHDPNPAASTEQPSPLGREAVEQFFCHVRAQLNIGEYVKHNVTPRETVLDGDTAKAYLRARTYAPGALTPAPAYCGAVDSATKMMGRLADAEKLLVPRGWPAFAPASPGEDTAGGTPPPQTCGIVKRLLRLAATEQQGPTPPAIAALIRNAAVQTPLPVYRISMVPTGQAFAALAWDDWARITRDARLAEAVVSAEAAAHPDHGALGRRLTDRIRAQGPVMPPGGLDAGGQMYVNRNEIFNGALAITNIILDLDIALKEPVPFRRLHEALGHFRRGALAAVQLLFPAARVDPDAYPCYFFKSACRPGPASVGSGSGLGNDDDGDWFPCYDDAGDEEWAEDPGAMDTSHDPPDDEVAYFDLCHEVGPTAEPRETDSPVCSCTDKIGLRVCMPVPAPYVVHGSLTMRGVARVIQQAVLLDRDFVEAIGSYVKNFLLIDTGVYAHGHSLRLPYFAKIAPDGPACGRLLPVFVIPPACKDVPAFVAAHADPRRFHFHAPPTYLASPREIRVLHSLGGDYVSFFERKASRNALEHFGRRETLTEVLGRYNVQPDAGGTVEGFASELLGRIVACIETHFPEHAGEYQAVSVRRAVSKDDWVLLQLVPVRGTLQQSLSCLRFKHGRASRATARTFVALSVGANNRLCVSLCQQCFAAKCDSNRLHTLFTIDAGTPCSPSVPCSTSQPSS
Experiment: Inhibitory concentration against herpes simplex virus helicase primase 8 (HSV)

O=C(O)CS(=O)(=O)c1ccc(-c2ccccc2)cc1
IC50: > 80 µM
